Test results from patent US20240269317A1, “TARGETED ENCAPSULATION STRATEGIES FOR TREATMENT MODALITIES” (NUTARIA LTD., priority 2021, published 2024).

Key:
[1] = target: T1, PPARγ (Homo sapiens, UniProt P37231); details: classified by ability to inhibit rosiglitazone-induced cellular responses; cited from earlier work
T1 sequence (P37231 1-505): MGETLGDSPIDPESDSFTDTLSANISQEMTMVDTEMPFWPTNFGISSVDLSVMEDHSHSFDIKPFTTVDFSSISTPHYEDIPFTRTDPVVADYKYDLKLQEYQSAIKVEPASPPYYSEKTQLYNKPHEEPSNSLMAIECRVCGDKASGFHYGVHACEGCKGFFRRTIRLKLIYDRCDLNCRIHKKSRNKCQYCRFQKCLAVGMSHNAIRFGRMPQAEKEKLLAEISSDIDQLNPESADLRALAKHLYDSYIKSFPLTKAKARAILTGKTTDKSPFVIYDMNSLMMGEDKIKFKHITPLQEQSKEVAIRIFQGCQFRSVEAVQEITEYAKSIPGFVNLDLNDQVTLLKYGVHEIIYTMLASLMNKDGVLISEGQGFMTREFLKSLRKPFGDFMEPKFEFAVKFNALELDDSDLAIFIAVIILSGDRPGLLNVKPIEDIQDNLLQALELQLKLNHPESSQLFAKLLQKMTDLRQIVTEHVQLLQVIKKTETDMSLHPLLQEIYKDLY

[2] = tested on: nuclear transcription factor κB (NF-κB) activation; details: cited from earlier work; for activation of IRAK-1, IKK-β, NF-κB, and MAP kinases (ERK, JNK, and p-38): LPS-stimulated murine peritoneal macrophages; for NF-κB activation: lipopolysaccharide (LPS)-stimulated murine peritoneal macrophages
[3] = tested on: Human Neuroblastoma cells (SH Sy5Y cells cell line); assay: in-vitro curcumin delivery experiment (curcumin fluorescence); assay type: cell-based; details: after 3.5 hours of treatment, relative to the 1 hour time point
Text: FIGS. 5a-b depict different time points of the same experiment. […] This effect might be due to intra-cellular metabolism of the curcumin present in the SLN 10+Caffeine 13 sample.

[4] = target: T2, cyclooxygenase-2 (COX-2) (Homo sapiens, UniProt P35354); details: cited from earlier work
T2 sequence (P35354 18-604): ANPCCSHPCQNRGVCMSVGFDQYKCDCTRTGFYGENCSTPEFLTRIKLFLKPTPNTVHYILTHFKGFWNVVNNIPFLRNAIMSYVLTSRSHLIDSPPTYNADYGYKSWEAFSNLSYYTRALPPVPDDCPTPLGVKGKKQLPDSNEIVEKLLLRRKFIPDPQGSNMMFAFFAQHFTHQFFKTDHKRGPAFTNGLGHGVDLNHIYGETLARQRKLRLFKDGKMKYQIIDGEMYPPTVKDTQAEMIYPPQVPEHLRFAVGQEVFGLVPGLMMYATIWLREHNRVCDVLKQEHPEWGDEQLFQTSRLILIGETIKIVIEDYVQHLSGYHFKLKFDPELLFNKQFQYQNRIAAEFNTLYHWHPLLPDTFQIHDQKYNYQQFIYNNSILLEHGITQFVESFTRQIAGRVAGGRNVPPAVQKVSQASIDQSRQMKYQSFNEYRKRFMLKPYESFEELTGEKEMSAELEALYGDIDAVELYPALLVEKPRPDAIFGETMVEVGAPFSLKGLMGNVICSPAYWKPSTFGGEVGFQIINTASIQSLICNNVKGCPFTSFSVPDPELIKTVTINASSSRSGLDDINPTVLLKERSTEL

Compound	PPARγ activity (agonist, antagonist or modulator) [1]	other results
O=c1cc(-c2ccc(O)cc2)oc2cc(O)cc(O)c12 [apigenin]	modulators	–
COc1ccc(-c2coc3cc(O)cc(O)c3c2=O)cc1 [biochanin A]	agonist	–
CC(C)=CCC[C@](C)(O[C@@H]1O[C@H](CO)[C@@H](O)[C@H](O)[C@H]1O)[C@H]1CC[C@]2(C)[C@@H]1[C@H](O)C[C@@H]1[C@@]3(C)CC[C@H](O)C(C)(C)[C@@H]3CC[C@]12C [compound K]	–	activation of IRAK-1, IKK-β, NF-κB, and MAP kinases (ERK, JNK, and p-38) [2]: significantly inhibited; NF-κB activation [2]: inhibited
COc1cc(/C=C/C(=O)CC(=O)/C=C/c2ccc(O)c(OC)c2)ccc1O [curcumin]	–	curcumin fluorescence [3]: remained at the same levels
COc1ccc(-c2cc(=O)c3c(O)cc(O)cc3o2)cc1O [diosmetin]	antagonists	–
CC(C)=CCC[C@](C)(O[C@@H]1O[C@H](CO[C@@H]2O[C@H](CO)[C@@H](O)[C@H](O)[C@H]2O)[C@@H](O)[C@H](O)[C@H]1O)[C@H]1CC[C@]2(C)[C@@H]1[C@H](O)C[C@@H]1[C@@]3(C)CC[C@H](O[C@@H]4O[C@H](CO)[C@@H](O)[C@H](O)[C@H]4O[C@@H]4O[C@H](CO)[C@@H](O)[C@H](O)[C@H]4O)C(C)(C)[C@@H]3CC[C@]12C [ginsenoside Rb1]	–	activation of IRAK-1, IKK-β, NF-κB, and MAP kinases (ERK, JNK, and p-38) [2]: significantly inhibited; NF-κB activation [2]: inhibited
O=c1cc(-c2ccc(O)c(O)c2)oc2cc(O)cc(O)c12 [luteolin]	antagonists	–
O=C1C[C@@H](c2ccc(O)cc2)Oc2cc(O)cc(O)c21 [naringenin]	modulators	–
O=c1c(O)c(-c2ccc(O)c(O)c2)oc2cc(O)cc(O)c12 [quercetin]	antagonists	–
O=C(/C=C/c1ccc(O)c(O)c1)O[C@H](Cc1ccc(O)c(O)c1)C(=O)O [rosmarinic acid]	antagonists	–
C-phycocyanin	–	IC50 COX-2/IC50 COX-1 ratio [4]: 0.04
